Patent US12162867B2, “Inhibitors of RNA helicase DHX9 and uses thereof” (ACCENT THERAPEUTICS, INC., priority 2022, dated 2024)

Key:
Assay type in all cases: cell-based
[1] = test system: NCI-H747 cells; experiment: DHX9 cellular proliferation assay (CellTiter-Glo), NCI-H747 (CRC-MSS); conditions: Homo sapiens, NCI-H747, NCI-H747; performed at Pharmaron; read-out: H747 (CRC-MSS) Antiproliferative IC50
[2] = test system: circBRIP1 in HCT116 cells; experiment: DHX9 circBRIP1 cellular target engagement TaqMan Multiplex assay (qPCR); conditions: Homo sapiens, HCT-116, circBRIP1, HCT116 cells; * Taqman assay was used; read-out: DHX9 Cellular Target Engagement EC50
[3] = test system: LS411N cells; experiment: DHX9 cellular proliferation assay (CellTiter-Glo), LS411N (CRC-MSI); conditions: Homo sapiens, LS-411N, LS411N; performed at Pharmaron; read-out: LS411N (CRC-MSI-H) Antiproliferative IC50

Row | SMILES | IC50 [1] | EC50 [2] | IC50 [3]
1 | Cc1sc(C(=O)Nc2cc(Cl)cc(NS(C)(=O)=O)c2)cc1-c1ccc(N2CCN(C(=O)C3CC3)CC2)cn1 [Example 590, N-(3-chloro-5-methanesulfonamidophenyl)-4-[5-(4-cyclopropanecarbonylpiperazin-1-yl)pyridin-2-yl]-5-methylthiophene-2-carboxamide] | > 10 µM | 33.7 nM | 533 nM
2 | COC(=O)N1CCN(c2ccc(-c3cc(C(=O)Nc4cc(Cl)cc(NS(C)(=O)=O)c4)cn3C)nc2)CC1 [Example 596] | 9.88 µM | 38 nM | 172 nM
3 | Cn1cc(C(=O)Nc2cc(Cl)cc(NS(C)(=O)=O)c2)cc1-c1ncc(N2CC(F)(F)C2)cn1 [Example 597] | > 10 µM | 64.8 nM | 164 nM
4 | Cn1cc(C(=O)Nc2cc(Cl)cc(NS(C)(=O)=O)c2)cc1-c1ncc(N2CC(F)C2)cn1 [Example 598] | > 10 µM | 50.6 nM | 174 nM
5 | Cn1cc(C(=O)Nc2cc(Cl)cc(NS(C)(=O)=O)c2)cc1-c1ncc(N2CC(F)(F)C2)cc1F [Example 599] | 4.33 µM | 37.8 nM | 149 nM
6 | COC(=O)N1CCN(c2cnc(-c3cc(C(=O)Nc4cc(Cl)cc(NS(C)(=O)=O)c4)sc3C)c(C)c2)CC1 [Example 601] | > 10 µM | 106 nM | 64.5 nM
7 | CN1C(=O)N(c2ccc(-c3cc(C(=O)Nc4cc(Cl)cc(NS(C)(=O)=O)c4)cn3C)nc2)C(=O)C1(C)C [Example 603] | 8.37 µM | 45.8 nM | 1090 nM
8 | Cc1sc(C(=O)Nc2cc(Cl)cc(NS(C)(=O)=O)c2)cc1-c1ncc(OC2CN(C)C2)cn1 [Example 609, N-(3-chloro-5-methanesulfonamidophenyl)-5-methyl-4-{5-[(1-methylazetidin-3-yl)oxy]pyrimidin-2-yl}thiophene-2-carboxamide] | > 10 µM | 4.7 nM | 658 nM
9 | CN1CC(Oc2cnc(-c3cc(C(=O)Nc4cc(Cl)cc(NS(C)(=O)=O)c4)cn3C)c(F)c2)C1 [Example 611] | 8.83 µM | 20.5 nM | 133 nM
10 | CN1CC(Oc2cnc(-c3cc(C(=O)Nc4cc(Cl)cc(NS(C)(=O)=O)c4)cn3CC(F)(F)F)nc2)C1 [Example 613] | > 10 µM | 116 nM | 173 nM
11 | Cn1cc(C(=O)Nc2cc(Cl)cc(NS(C)(=O)=O)c2)cc1-c1ncc(OC2CN(CC(F)F)C2)cc1F [Example 614] | 3.19 µM | 26.9 nM | 53.1 nM
12 | Cn1cc(C(=O)Nc2cc(Cl)cc(NS(C)(=O)=O)c2)cc1-c1ncc(OC2CN(CC(F)(F)F)C2)cc1F [Example 615] | 7.56 µM | 133 nM | 71.3 nM
13 | CNc1cnc(-c2cc(C(=O)Nc3cc(Cl)cc(NS(C)(=O)=O)c3)sc2C)nc1 [Example 616, N-(3-chloro-5-methanesulfonamidophenyl)-5-methyl-4-[5-(methylamino)pyrimidin-2-yl]thiophene-2-carboxamide] | > 10 µM | 17.3 nM | 348 nM
14 | Cc1sc(C(=O)Nc2cc(Cl)cc(NS(C)(=O)=O)c2)cc1-c1ncc(C2CCN(CC(F)(F)F)CC2)cc1F [Example 618] | 1.85 µM | 45.4 nM | 132 nM
15 | Cn1cc(C(=O)Nc2cc(Cl)cc(NS(C)(=O)=O)c2)cc1-c1ccc(C2CCN(CC(F)(F)F)CC2)cn1 [Example 619] | 3.62 µM | 84.5 nM | 178 nM
16 | CCS(=O)(=O)Nc1cc(Cl)cc(NC(=O)c2cc(-c3ncc(F)cc3OCc3nccs3)c(C)s2)c1 [Example 622] | > 10 µM | 55.9 nM | 48.9 nM
17 | CCS(=O)(=O)Nc1cc(Cl)cc(NC(=O)c2cc(-c3ncc(F)cc3OCc3cncnc3)c(C)s2)c1 [Example 623] | > 10 µM | 11.2 nM | 72.3 nM
18 | Cc1sc(C(=O)Nc2cc(Cl)cc(NS(=O)(=O)CCO)c2)cc1-c1ncccc1OCc1cncc(F)c1 [Example 626] | > 10 µM | 24.1 nM | 137 nM
